Entries after “also recorded” stand apart in the source; their conditions may differ. Peptide text beside a SMILES is read from it.
Tests used:
Assay type in all cases: in vivo, rat
EphB1 [1] = experiment: Western blot of EphB1 and its phosphorylation in spinal cord of TCI rats; details: for Increased levels of EphB1: exogenous MMP, no EphB2-Fc
Experimental: (§1) Protein precipitation procedures in conjunction with Western blots were employed to identify temporal expression of EphB1, ephrinB2 protein and their phosphorylation. Protocols were similar to those described previously (Liu W T, et al., FASEB J 2009; 23:90-8; Liu W T, et al., J Neurosci 2010; 30:7613-23). EphB1 and ephrinB2 were immunoprecipitated from 2 mg total protein/int tissue lysate using an anti-EphB1 antibody (2 μg; Santa Cruz Technology, SCT) complex with protine G-agarose (Invitrogen) and wheat germ agglutinin (WGA) linked to agarose (Sigma), respectively. EphrinB2 and its phosphorylation were detected using anti-ephrinB2 (C20, SCT) and anti-phosphotyrosine antibody PY99 (SCT), respectively (Georgakopoulos A, et al., EMBO J 2006; 25:1242-52). EphB1 and its phosphorylation were detected using anti-EphB1 antibody (Q20, SCT) and phosphotyrosine antibody 4G 10 (Upstate Biotechnology), respectively (Compagni A, et al., Dev Cell 2003; 5:217-30). NR2A immunoprecipitation was performed using anti-NR2A antibody followed by adsorption to protein G-agarose. Whole cell protein extracts lysates were used to identify temporal expression of the phosphorylated protein levels of NR1(pNR1), NR2B(pNR2B), Src(pSrc), ERK(pERK), CaMKII(pCaMKII), CREB(pCREB) and GAPDH. The primary antibodies were used include pNR1(Ser897), 1:800 (Millipore); pNR2B(Tyr1472), 1:300 (Chemicon); pSrc(Tyr418), 1:800 (Abeam, Cambridge, UK); pERK1/2(Thr202/Tyr204), 1:500; pCaMKII(Thr286), 1:1000 (Cell Signaling Technology); GAPDH, 1:1000 (Sigma); GFAP and pCREB (Ser133)(SCT). The filters were then developed using ECL reagents (Perkinelmer) with secondary antibodies (Chemicon). Data was analyzed with a Molecular Imager (Gel Doc™ XR, 170-8170) and the associated software Quantity One-4.6.5 (Bio-Rad Laboratories).

EphB1 [2] = experiment: Western blot of EphB1 and pEphB1 in spinal cord of naive rats; details: for Activation (phosphorylation) of EphB1 / Expression of EphB1 protein: exogenous MMP, no EphB2-Fc
Experimental: as §1

[3] = Morphine analgesia on thermal hyperalgesia in TCI rats
Experimental: Tumor cells were extracted from ascitic fluid of rats that received Walker-256 rat mammary gland carcinoma cells. Tumor cells implantation (TCI) was mimicked by injecting the cells (1×10^5 cells/μl, 5 μl) into the intra-medullary space of the right tibia to induce bone cancer in rats (Medhurst S J, et al., Pain 2002; 96:129-40).
Thermal hyperalgesia was determined by the significant shortened latency of foot withdrawal in response to heat stimulation. Mechanical allodynia was indicated by a significant decrease in the threshold of paw withdrawal to mechanical indentation of the plantar surface of each hindpaw. The protocols were similar to those described previously (Song X J, et al., J Neurophysiol 2006; 95:479-92; Wang Z B, et al., Pain 2005; 114:266-77).

EphB1 [4] = experiment: Western blot of EphB1 after acute or chronic morphine treatment
Experimental: as §1

MMP-9: exogenous matrix metalloproteinase-9 administered to rats
Increased levels of EphB1 (EphB1 [1]): did not significantly alter | Activation (phosphorylation) of EphB1 (EphB1 [2]): an increase rather than a decline | Expression of EphB1 protein (EphB1 [2]): without altering

CC(C)C[C@@H](NC(=O)[C@@H]1CCCN1C(=O)CNC(=O)c1ccc(N)cc1)C(=O)N[C@H](C)C(=O)NO [FN439] (HELM PEPTIDE1{[Nc1ccc(C(=O)[*:2])cc1].G.P.[dL].[dA].[ON[*:1]]}$$$$V2.0)
EphB2-Fc-induced downregulation of EphB1 (EphB1 [1]; MMP2i 10 μg or FN439 100 μg): reversed; also recorded: completely prevented | TCI-induced upregulation of EphB1, without EphB2-Fc treatment (EphB1 [1]; blocking MMP-2 or MMP-9): inhibited | EphB2-Fc-induced downregulation of EphB1 (EphB1 [2]; MMP2i 10 μg or FN439 100 μg): reversed; also recorded: completely prevented | EphB1 level, without EphB2-Fc treatment (EphB1 [2]; blocking MMP-2 or MMP-9): keeping EphB1 at its physiological levels

CN1CC[C@]23c4c5ccc(O)c4O[C@H]2[C@@H](O)C=C[C@H]3[C@H]1C5 [morphine]
Thermal hyperalgesia ([3]; morphine 10 mg/kg s.c. twice a day): significantly suppressed | Time after which the analgesic effect decreased and disappeared (tolerance) ([3]; repeated morphine 10 mg/kg s.c. twice a day): 6 to 7 days | Expression of EphB1 and its phosphorylation (EphB1 [4]; acute morphine treatment (100 mg/kg, then 10 mg/kg at 24 h)): significantly increased | Expression of EphB1 and its phosphorylation (EphB1 [4]; acute morphine treatment (100 mg/kg, then 10 mg/kg at 24 h), listed as Mor): upregulates | Expression of EphB1 and its phosphorylation (EphB1 [4]; chronic morphine treatment (10 mg/kg)): significantly increased

B1: MMP-2: exogenous matrix metalloproteinase-2 administered to rats (protein, UniProt P33436 110-662, looked up)
72 kDa type IV collagenase: YNFFPRKPKWDKNQITYRIIGYTPDLDPETVDDAFARALKVWSDVTPLRFSRIHDGEADIMINFGRWEHGDGYPFDGKDGLLAHAFAPGTGVGGDSHFDDDELWTLGEGQVVRVKYGNADGEYCKFPFLFNGREYSSCTDTGRSDGFLWCSTTYNFEKDGKYGFCPHEALFTMGGNGDGQPCKFPFRFQGTSYNSCTTEGRTDGYRWCGTTEDYDRDKKYGFCPETAMSTVGGNSEGAPCVFPFTFLGNKYESCTSAGRSDGKVWCATTTNYDDDRKWGFCPDQGYSLFLVAAHEFGHAMGLEHSQDPGALMAPIYTYTKNFRLSNDDIKGIQELYGPSPDADTDTGTGPTPTLGPVTPEICKQDIVFDGIAQIRGEIFFFKDRFIWRTVTPRDKPTGPLLVATFWPELPEKIDAVYEAPQEEKAVFFAGNEYWVYSASTLERGYPKPLTSLGLPPDVQQVDAAFNWSKNKKTYIFSGDKFWRYNEVKKKMDPGFPKLIADSWNAIPDNLDAVVDLQGGGHSYFFKGAYYLKLENQSLKSVKFGSIKSDWLGC
Increased levels of EphB1 (EphB1 [1]): did not significantly alter | Activation (phosphorylation) of EphB1 (EphB1 [2]): an increase rather than a decline | Expression of EphB1 protein (EphB1 [2]): without altering

— patent US20130108628A1, “Method for treating cancer pain and/or rescuing analgesic effect of morphine treatment of cancer pain” (priority 2011, published 2013)
